Test [1] concerns the target T1, Phospholipid hydroperoxide glutathione peroxidase GPX4 (Homo sapiens) (UniProt P36969).
T1 sequence (whole entry): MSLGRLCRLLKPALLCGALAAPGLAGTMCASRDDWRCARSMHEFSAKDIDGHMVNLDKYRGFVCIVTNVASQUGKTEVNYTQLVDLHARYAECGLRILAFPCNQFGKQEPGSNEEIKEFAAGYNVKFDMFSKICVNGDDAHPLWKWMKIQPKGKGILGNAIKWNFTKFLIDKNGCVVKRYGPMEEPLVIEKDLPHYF
Description: Binding affinity to GPX4 in human HPAF-II cells at 0.2 uM incubated for 1 hr by SDS-PAGE analysis. In kind it is cell-based.

The target of test [2] is T1, Phospholipid hydroperoxide glutathione peroxidase GPX4 (Homo sapiens). Description: Competitive binding affinity to GPX4 in human ASPC1 cells at 0.2 uM incubated for 1 hr in presence of 4-(((4-(benzo[d]thiazol-2-yl)phenyl)(methyl)amino)methyl)-N-ethynyl-N-methylbenzenesulfonamide. In kind it is cell-based.

The source made the active and inactive calls. The rule behind the calls is not given here.

Regarding `C#CCN(Cc1ccc(S(=O)(=O)N(C)C#C)cc1)c1ccc(-c2nc3ccccc3s2)cc1`, the outcome in test [1] and in test [2] was Active.

Source of the values: ChEMBL document CHEMBL5537195, “Novel Covalent Probe Selectively Targeting Glutathione Peroxidase 4 In Vivo: Potential Applications in Pancreatic Cancer Therapy” (J Med Chem, 2024).
